From ChEMBL document CHEMBL3885861, “Open TG-GATES”

Species: Rattus norvegicus
Assay: Open TG-GATES - Regimen: Daily Repeat
Type: toxicity, organism-based, Sprague-Dawley
Design: regimen Daily Repeat, gender Male, age 6 weeks
Settings: in vivo, po, 1000 mg/kg, route gavage, dose level Middle; for APTT / Bas / Eos / Fbg / Hb / Ht / Lym / MCH / MCHC / MCV / Mono / Neu / PT / Plat / RBC / Ret / WBC: tissue Blood; for KIDNEY_L / KIDNEY_R / KIDNEY_TOTAL: tissue Kidney; for LIVER: tissue Liver; for A/G / ALP / ALT / AST / BUN / CRE / Ca / Cl / DBIL / GLC / IP / K / LDH / Na / PL / RALB / TBIL / TC / TG / TP / gamma-GTP: tissue Plasma

Compound `COc1ccc(O)c(C(C)(C)C)c1.COc1ccc(O)cc1C(C)(C)C` [BUTYLATED HYDROXYANISOLE] has a TERMINAL_BW (72 h, time 3 day) of 219.1 g, an APTT (72 h, time 3 day) of 16.1 s and a Bas (72 h, time 3 day) of 0.3%. It also gave an Eos (72 h, time 3 day) of 0.7%, a Fbg (72 h, time 3 day) of 310.6 mg/dL and a Hb (72 h, time 3 day) of 12.6 g/dL. It also gave a Ht (72 h, time 3 day) of 36.7%, a Lym (72 h, time 3 day) of 75.6% and an MCH (72 h, time 3 day) of 20.5 pg. The MCHC (72 h, time 3 day) was 34.3%, the MCV (72 h, time 3 day) was 59.6 fL and the Mono (72 h, time 3 day) was 3.1%. The Neu (72 h, time 3 day) was 19.4%, the PT (72 h, time 3 day) was 10.9 s and the Plat (72 h, time 3 day) was 134.7 x10_4/uL. For the same compound, the RBC (72 h, time 3 day) was 615.6 x10_4/ul, the Ret (72 h, time 3 day) was 3.6% and the WBC (72 h, time 3 day) was 130.3 x10_2/uL. For the same compound, the KIDNEY_L (72 h, time 3 day) was 1 g, the KIDNEY_R (72 h, time 3 day) was 0.9 g and the KIDNEY_TOTAL (72 h, time 3 day) was 1.9 g. The LIVER (72 h, time 3 day) was 15 g, the A/G (72 h, time 3 day) was 0.8 and the ALP (72 h, time 3 day) was 1334 IU/L. For the same compound, the ALT (72 h, time 3 day) was 44.6 IU/L, the AST (72 h, time 3 day) was 65.6 IU/L and the BUN (72 h, time 3 day) was 16 mg/dL. It also gave a CRE (72 h, time 3 day) of 0.2 mg/dL, a Ca (72 h, time 3 day) of 11.5 mg/dL and a Cl (72 h, time 3 day) of 104.6 meq/L. It also gave a DBIL (72 h, time 3 day) of 0.028 mg/dL, a GLC (72 h, time 3 day) of 171.4 mg/dL and an IP (72 h, time 3 day) of 7 mg/dL. The K (72 h, time 3 day) was 3.9 meq/L, the LDH (72 h, time 3 day) was 71.8 IU/L and the Na (72 h, time 3 day) was 142.4 meq/L. It also gave a PL (72 h, time 3 day) of 200.8 mg/dL, an RALB (72 h, time 3 day) of 2.6 g/dL and a TBIL (72 h, time 3 day) of 0.092 mg/dL. The TC (72 h, time 3 day) was 115.2 mg/dL, the TG (72 h, time 3 day) was 76.2 mg/dL and the TP (72 h, time 3 day) was 5.9 g/dL. For the same compound, the gamma-GTP (72 h, time 3 day) was 1.6 IU/L, the TERMINAL_BW ([…], time 7 day) was 247 g and the TERMINAL_BW ([…], time 14 day) was 309.8 g. For the same compound, the TERMINAL_BW ([…], time 28 day) was 393.4 g, the APTT ([…], time 7 day) was 16.2 s and the Bas ([…], time 7 day) was 0.3%. It also gave an Eos ([…], time 7 day) of 0.6%, a Fbg ([…], time 7 day) of 341 mg/dL and a Hb ([…], time 7 day) of 13.3 g/dL. For the same compound, the Ht ([…], time 7 day) was 38.5%, the Lym ([…], time 7 day) was 79% and the MCH ([…], time 7 day) was 20.6 pg. The MCHC ([…], time 7 day) was 34.5%, the MCV ([…], time 7 day) was 59.7 fL and the Mono ([…], time 7 day) was 2%. It also gave a Neu ([…], time 7 day) of 17.1%, a PT ([…], time 7 day) of 11.6 s and a Plat ([…], time 7 day) of 156.6 x10_4/uL. For the same compound, the RBC ([…], time 7 day) was 645.8 x10_4/ul, the Ret ([…], time 7 day) was 5.7% and the WBC ([…], time 7 day) was 119.3 x10_2/uL. The APTT ([…], time 14 day) was 19.6 s, the Bas ([…], time 14 day) was 0.3% and the Eos ([…], time 14 day) was 0.7%. For the same compound, the Fbg ([…], time 14 day) was 334.2 mg/dL, the Hb ([…], time 14 day) was 13.6 g/dL and the Ht ([…], time 14 day) was 39.6%. The Lym ([…], time 14 day) was 76.3%, the MCH ([…], time 14 day) was 19.9 pg and the MCHC ([…], time 14 day) was 34.3%. The MCV ([…], time 14 day) was 57.9 fL, the Mono ([…], time 14 day) was 2.4% and the Neu ([…], time 14 day) was 19.6%. The PT ([…], time 14 day) was 11.8 s, the Plat ([…], time 14 day) was 132.4 x10_4/uL and the RBC ([…], time 14 day) was 684.8 x10_4/ul. It also gave a Ret ([…], time 14 day) of 3.9%, a WBC ([…], time 14 day) of 105.1 x10_2/uL and an APTT ([…], time 28 day) of 20.3 s. The Bas ([…], time 28 day) was 0.4%, the Eos ([…], time 28 day) was 1% and the Fbg ([…], time 28 day) was 290.2 mg/dL. The Hb ([…], time 28 day) was 14.7 g/dL, the Ht ([…], time 28 day) was 41.5% and the Lym ([…], time 28 day) was 77.6%. It also gave an MCH ([…], time 28 day) of 19.5 pg, an MCHC ([…], time 28 day) of 35.4% and an MCV ([…], time 28 day) of 55 fL. It also gave a Mono ([…], time 28 day) of 1.8%, a Neu ([…], time 28 day) of 18.4% and a PT ([…], time 28 day) of 12.1 s. For the same compound, the Plat ([…], time 28 day) was 119.1 x10_4/uL, the RBC ([…], time 28 day) was 754.6 x10_4/ul and the Ret ([…], time 28 day) was 2.2%. For the same compound, the WBC ([…], time 28 day) was 117.9 x10_2/uL, the KIDNEY_L ([…], time 7 day) was 1 g and the KIDNEY_R ([…], time 7 day) was 1 g. It also gave a KIDNEY_TOTAL ([…], time 7 day) of 2 g, a KIDNEY_L ([…], time 14 day) of 1.2 g and a KIDNEY_R ([…], time 14 day) of 1.1 g. The KIDNEY_TOTAL ([…], time 14 day) was 2.3 g, the KIDNEY_L ([…], time 28 day) was 1.3 g and the KIDNEY_R ([…], time 28 day) was 1.3 g. The KIDNEY_TOTAL ([…], time 28 day) was 2.6 g, the LIVER ([…], time 7 day) was 13.6 g and the LIVER ([…], time 14 day) was 18 g. It also gave an LIVER ([…], time 28 day) of 20 g, an A/G ([…], time 7 day) of 0.8 and an ALP ([…], time 7 day) of 1105 IU/L. It also gave an ALT ([…], time 7 day) of 35.6 IU/L, an AST ([…], time 7 day) of 56.8 IU/L and a BUN ([…], time 7 day) of 16.4 mg/dL. For the same compound, the CRE ([…], time 7 day) was 0.2 mg/dL, the Ca ([…], time 7 day) was 11.3 mg/dL and the Cl ([…], time 7 day) was 105.4 meq/L. For the same compound, the DBIL ([…], time 7 day) was 0.024 mg/dL, the GLC ([…], time 7 day) was 171.8 mg/dL and the IP ([…], time 7 day) was 6.8 mg/dL. For the same compound, the K ([…], time 7 day) was 3.7 meq/L, the LDH ([…], time 7 day) was 62.8 IU/L and the Na ([…], time 7 day) was 143 meq/L. The PL ([…], time 7 day) was 188.2 mg/dL, the RALB ([…], time 7 day) was 2.8 g/dL and the TBIL ([…], time 7 day) was 0.054 mg/dL. It also gave a TC ([…], time 7 day) of 103.4 mg/dL, a TG ([…], time 7 day) of 144.4 mg/dL and a TP ([…], time 7 day) of 6.4 g/dL. The gamma-GTP ([…], time 7 day) was 1.2 IU/L, the A/G ([…], time 14 day) was 0.7 and the ALP ([…], time 14 day) was 1071.8 IU/L. The ALT ([…], time 14 day) was 36.8 IU/L, the AST ([…], time 14 day) was 56.8 IU/L and the BUN ([…], time 14 day) was 19 mg/dL. The CRE ([…], time 14 day) was 0.2 mg/dL, the Ca ([…], time 14 day) was 11.1 mg/dL and the Cl ([…], time 14 day) was 105 meq/L. The DBIL ([…], time 14 day) was 0.022 mg/dL, the GLC ([…], time 14 day) was 169 mg/dL and the IP ([…], time 14 day) was 5.9 mg/dL. The K ([…], time 14 day) was 3.8 meq/L, the LDH ([…], time 14 day) was 50 IU/L and the Na ([…], time 14 day) was 143.6 meq/L. It also gave a PL ([…], time 14 day) of 199.8 mg/dL, an RALB ([…], time 14 day) of 2.8 g/dL and a TBIL ([…], time 14 day) of 0.046 mg/dL. For the same compound, the TC ([…], time 14 day) was 103 mg/dL, the TG ([…], time 14 day) was 164.8 mg/dL and the TP ([…], time 14 day) was 6.6 g/dL. The gamma-GTP ([…], time 14 day) was 1.8 IU/L, the A/G ([…], time 28 day) was 0.7 and the ALP ([…], time 28 day) was 853 IU/L. For the same compound, the ALT ([…], time 28 day) was 35.6 IU/L, the AST ([…], time 28 day) was 55.6 IU/L and the BUN ([…], time 28 day) was 17.4 mg/dL. For the same compound, the CRE ([…], time 28 day) was 0.3 mg/dL, the Ca ([…], time 28 day) was 11.2 mg/dL and the Cl ([…], time 28 day) was 104.4 meq/L. It also gave a DBIL ([…], time 28 day) of 0.018 mg/dL, a GLC ([…], time 28 day) of 183.8 mg/dL and an IP ([…], time 28 day) of 5.8 mg/dL. For the same compound, the K ([…], time 28 day) was 3.4 meq/L, the LDH ([…], time 28 day) was 58.2 IU/L and the Na ([…], time 28 day) was 145.2 meq/L. It also gave a PL ([…], time 28 day) of 161 mg/dL, an RALB ([…], time 28 day) of 2.7 g/dL and a TBIL ([…], time 28 day) of 0.058 mg/dL. The TC ([…], time 28 day) was 88.4 mg/dL, the TG ([…], time 28 day) was 115.4 mg/dL and the TP ([…], time 28 day) was 6.5 g/dL. It also gave a gamma-GTP ([…], time 28 day) of 1.4 IU/L.
